Source: patent US9303092B2, “Methamphetamine-like hapten compounds, linkers, carriers and compositions and uses thereof” (The Board of Trustees of the University of Arkansas, priority 2000, dated 2016)

Assays:
[1] = after intravenous (+)-methamphetamine; cited from earlier work
[2] = test system: discriminative stimulus effects of (+)-methamphetamine; test: Drug discrimination in rats; details: i.p., group III
[3] = test system: discriminative stimulus effects of (+)-methamphetamine; test: Drug discrimination in pigeons; details: i.m.
Description: The pigeons used in these experiments had performed in experiments previously.
Training continued for 40 min or until the pigeons had received 20 reinforcers, whichever occurred first. […] In the determination of cumulative dose-response curves, a dose of drug was administered and the pigeon was placed in the chamber for 10 min, after which the chamber and key lights were illuminated. The pigeon was tested for 5 min or until one food reinforcer had been delivered, whichever occurred first. Food was delivered following the completion of 20 responses on one of the two keys. After food had been delivered, or the session had timed out, the bird was removed from the chamber, a higher dose was administered, and the process was repeated.
Because only a few birds were still available for these experiments, the data for days 1-2 and days 7-8 were combined.
All doses are expressed as the salts.

[4] = (+)-Methamphetamine and (+)-amphetamine pharmacokinetic studies in serum and brain with and without mAb6H4; details: for AUC(0-t): male, Sprague-Dawley, rat, in vivo, Serum
Description: This allowed the administration of approximately 100 μCi per rat by injection of 1 μl/g of rat body weight.
Male Sprague-Dawley rats were randomly placed into two groups. […] Ethyl ether was used for anesthesia so that hemodynamic stability could be maintained before animal sacrifice. Immediately after blood collection, the rats were decapitated and the brain was removed. The brain was rinsed with saline, weighed, and placed in liquid nitrogen within 3 min of decapitation. Hematocrit values were obtained for each animal. The blood was allowed to clot and serum was obtained after centrifugation. The serum and brain tissues were stored at −80° C. until analyzed.
The second group was the mAb-treatment group. All aspects of the experiment were same as those described for the control group, with the following exception. […] The mAb was given via the jugular venous catheter in an 8-ml volume at 2 ml/min. Because the experimental protocol was the same up until the mAb was administered, the time points before 30 min were not repeated in this group.
For serum analysis, 300 μl of guanidine HCl was added to 200-μl of each serum sample to denature the proteins. The samples were vortexed and placed on a gentle shaker for 30 min. […] After sample application, the cartridges were centrifuged at 230 g for 1 min, washed with 1 ml of water, and then centrifuged. […] Then, 1 ml of methanol:acetic acid (98:2) was added, followed by centrifugation.
A 200-μl aliquot was then added to 300 μl of 8 M guanidine HCl. The mixture was vortexed and gently shaked for 30 min. […] The mixture was vortexed, placed on ice for 5 min, and centrifuged at 12,500 g for 5 min.
Supernatants from the brain samples were applied to conditioned extraction cartridges and then centrifuged at 600 g for 4 min. The brain precipitates left over from the 12,500 g centrifugation were resuspended in 500 μl of water and centrifuged at 12,500 g for 3 min. The supernatants were then added to their respective extraction columns and centrifuged at 600 g for 4 min. This was followed by a 1-ml water wash, with another 4 min centrifugation at 600 g. Finally, the cartridges were placed in siliconized test tubes for sample collection. The elution process was as described for the serum samples.
After elution, the samples were taken to dryness over 3 h in a vacuum centrifuge (Savant Instruments, Inc., Farmingdale, N.Y.) with no heat or cryopumping.
The data were fit to both two- and three-compartment i.v. bolus models, with y (predicted concentration), 1/y, or 1/y^2 weighting. The best-fit line was chosen by visual inspection and analysis of the residuals. […] All pharmacokinetic analysis was performed with the use of WinNonlin V3.0 (Pharsight Corporation, Mountain View, Calif.).

mAb6H4 = test: RIA binding specificity, relative potency to METH; parameters: species or system mouse; details: RIA IC50 value for METH/RIA IC50 value for test ligand
mAb6H8 = test: RIA binding specificity, relative potency to METH; parameters: species or system mouse; details: RIA IC50 value for METH/RIA IC50 value for test ligand
mAb4G9 = test: RIA binding specificity, relative potency to METH; parameters: species or system mouse; details: RIA IC50 value for METH/RIA IC50 value for test ligand
[5] = test system: (+)-methamphetamine-induced locomotor activity; test: (+)-Methamphetamine locomotor activity studies, rat overdose model, mAb at t=30 min; type: in vivo
Description: The parameters of distance traveled (in centimeters or meters), number of rearing events, and time spent moving (in seconds) were individually quantified for each animal. […] Briefly, animals were placed in polyethylene chambers that contained a bedding of dark-gray clay. Animal behavior was videotaped, and the video images were digitized and quantitated in 4-min intervals by EthoVision software (Noldus Information Technology Inc., Sterling, Va.). The duration of drug action was calculated for each parameter starting at 30 min (time of treatment) and until the locomotor activity returned to baseline.
Rats were habituated to the behavioral monitoring chambers before the start of the experimental protocol. This was accomplished by placing the rats in the chambers for a minimum of 3 h per day for 4-6 consecutive days. […] The rats in each group were dosed every three days for a total of 10 days.
On day 1, all groups received saline followed at 30 min by mAb buffer to obtain baseline (non-drug-induced) behavior.
All control buffer and mAb solutions were administered via the jugular venous catheter in an 8-ml volume at 2 ml/min. Three days after the end of the experimental protocol for the 1-mg/kg group, locomotor activity from a second saline administration was monitored to determine whether any changes had occurred in baseline activity.
All other aspects of the protocol were as just described.

[6] = test system: methamphetamine-induced locomotor activity; test: Anti-METH Fab treatment of methamphetamine-induced behavioral effects; type: in vivo, rat; details: 1 mg/kg iv methamphetamine, treatment at 30 min
Description: Rats (n=4 per group) were administered saline (left most bar) or 1.0 mg/kg d-methamphetamine as an intravenous bolus dose. When drug effects were maximizing at 30 minutes, they were treated with saline (control), an anti-phencyclidine monoclonal antibody Fab fragment (anti-PCP), or an anti-d-methamphetamine-specific monoclonal antibody Fab fragment (anti-methamphetamine).

[7] = test system: (+)methamphetamine induced effects; test: Pretreatment with anti-(+)methamphetamine monoclonal antibody before 1 mg/kg (+)methamphetamine challenge; type: in vivo, rat; details: 1.0 mg/kg i.v.
Description: Rats (n=7/group) were administered a dose of […] of anti-methamphetamine monoclonal antibody on day 1. The following day they were administered i.v. (+)methamphetamine (1.0 mg/kg) 3 days apart on two occasions to stabilize locomotor responses and to minimize sensitization.

[8] = from Riviere et al. (1999); cited from earlier work
[9] = Preliminary studies of high i.v. (+)-methamphetamine doses

CC(N)Cc1ccccc1 (single isomer, unassigned; (+)) [(+)AMP, (+)-amphetamine]
time to peak plasma levels of (+)-amphetamine [1]: ≤ 20 min | potency of (+)-methamphetamine and (+)-amphetamine as discriminative stimuli compared [2]: nearly equipotent | potency of (+)-methamphetamine and (+)-amphetamine compared [3]: approximately equipotent | AUC38 min-[…] Treated ([4]; Brain, 1-mol equivalent dose of mAb at 30 min): 284 ng·h/g | AUC38 min-[…] Control ([4]; Brain, without treatment): 530 ng·h/g | AUC(0-t) ([4]; AUC38 min-[…] Control, without treatment): 55 ng·h/mL | AUC(0-t) ([4]; AUC38 min-[…] Treated, 1-mol equivalent dose of mAb at 30 min): 73 ng·h/mL

CC(N)Cc1ccc2c(c1)OCO2 (single isomer, unassigned; (+)) [(+)MDA]
Relative Potency to METH, mAb6H4 (mAb6H4): 0.001 | Relative Potency to METH, mAb6H8 (mAb6H8): 0.024 | Relative Potency to METH, mAb4G9 (mAb4G9): 0.090

CNC(C)Cc1ccc2c(c1)OCO2 (single isomer, unassigned; (+)) [(+)MDMA, (+)-3,4-methylenedioxymethamphetamine]
Relative Potency to METH, mAb6H4 (mAb6H4): 1.25 | Relative Potency to METH, mAb6H8 (mAb6H8): 3.40 | Relative Potency to METH, mAb4G9 (mAb4G9): 0.29

CC(N)C(O)c1ccccc1 (single isomer, unassigned; (+)) [(+)phenylpropanolamine]
Relative Potency to METH, mAb6H4 (mAb6H4): <0.001 | Relative Potency to METH, mAb6H8 (mAb6H8): <0.001 | Relative Potency to METH, mAb4G9 (mAb4G9): <0.001

CC(N)Cc1ccc2c(c1)OCO2 (single isomer, unassigned; (-)) [(−)MDA]
Relative Potency to METH, mAb6H4 (mAb6H4): <0.001 | Relative Potency to METH, mAb6H8 (mAb6H8): <0.001 | Relative Potency to METH, mAb4G9 (mAb4G9): 0.002

CNC(C)Cc1ccc2c(c1)OCO2 (single isomer, unassigned; (-)) [(−)MDMA]
Relative Potency to METH, mAb6H4 (mAb6H4): 0.007 | Relative Potency to METH, mAb6H8 (mAb6H8): 0.018 | Relative Potency to METH, mAb4G9 (mAb4G9): 0.011

CNC(C)Cc1ccc(O)cc1 (centres unmarked) [4-OH-METH]
Relative Potency to METH, mAb6H4 (mAb6H4): 0.588 | Relative Potency to METH, mAb6H8 (mAb6H8): 0.294 | Relative Potency to METH, mAb4G9 (mAb4G9): 0.106

CN[C@H](C)[C@@H](O)c1ccccc1 [(+)ephedrine]
Relative Potency to METH, mAb6H4 (mAb6H4): <0.001 | Relative Potency to METH, mAb6H8 (mAb6H8): <0.001 | Relative Potency to METH, mAb4G9 (mAb4G9): <0.001

CN[C@H](C)Cc1ccccc1 [(−)METH]
Relative Potency to METH, mAb6H4 (mAb6H4): 0.030 | Relative Potency to METH, mAb6H8 (mAb6H8): 0.011 | Relative Potency to METH, mAb4G9 (mAb4G9): 0.102

CNC[C@H](O)c1cccc(O)c1 [/-phenylphrine]
Relative Potency to METH, mAb6H4 (mAb6H4): 0.001 | Relative Potency to METH, mAb6H8 (mAb6H8): <0.001 | Relative Potency to METH, mAb4G9 (mAb4G9): <0.001

NCCc1ccc(O)c(O)c1 [dopamine]
Relative Potency to METH, mAb6H4 (mAb6H4): <0.001 | Relative Potency to METH, mAb6H8 (mAb6H8): <0.001 | Relative Potency to METH, mAb4G9 (mAb4G9): <0.001

CNC[C@H](O)c1ccc(O)c(O)c1 [epinephrine]
Relative Potency to METH, mAb6H4 (mAb6H4): <0.001 | Relative Potency to METH, mAb6H8 (mAb6H8): <0.001 | Relative Potency to METH, mAb4G9 (mAb4G9): <0.001

NC[C@H](O)c1ccc(O)c(O)c1 [norepinepherine]
Relative Potency to METH, mAb6H4 (mAb6H4): <0.001 | Relative Potency to METH, mAb6H8 (mAb6H8): <0.001 | Relative Potency to METH, mAb4G9 (mAb4G9): <0.001

NCCc1c[nH]c2ccc(O)cc12 [serotonin]
Relative Potency to METH, mAb6H4 (mAb6H4): <0.001 | Relative Potency to METH, mAb6H8 (mAb6H8): <0.001 | Relative Potency to METH, mAb4G9 (mAb4G9): <0.001

NCCc1ccc(O)cc1 [tyramine]
Relative Potency to METH, mAb6H4 (mAb6H4): <0.001 | Relative Potency to METH, mAb6H8 (mAb6H8): <0.001 | Relative Potency to METH, mAb4G9 (mAb4G9): <0.001

NCCc1ccccc1 [β-phenylethylamine]
Relative Potency to METH, mAb6H4 (mAb6H4): <0.001 | Relative Potency to METH, mAb6H8 (mAb6H8): <0.001 | Relative Potency to METH, mAb4G9 (mAb4G9): 0.001

(+)-methamphetamine [(+)METH]
duration of (+)-methamphetamine-induced locomotor effects following buffer ([5]; 0.3-mg/kg dose): approximately 1 h | duration of (+)-methamphetamine-induced locomotor effects following buffer ([5]; 1.0-mg/kg dose): ~2 h | duration of drug action following buffer ([5]; 3.0-mg/kg group): 4 h | duration of action / activity, distance traveled parameter [6]: 116 ± 17 min | duration of action of (+)methamphetamine without the monoclonal antibody [7]: about 160 min | t1/2dist of (+)-methamphetamine in serum [8]: 9 min | potency of (+)-methamphetamine and (+)-amphetamine as discriminative stimuli compared [2]: nearly equipotent | potency of (+)-methamphetamine and (+)-amphetamine compared [3]: approximately equipotent | doses sometimes lethal [9]: 10 mg/kg | i.v. doses that led to self-mutilation [9]: ≥ 5.2 mg/kg

(+)norpseudoephedrine
Relative Potency to METH, mAb6H4 (mAb6H4): <0.001 | Relative Potency to METH, mAb6H8 (mAb6H8): <0.001 | Relative Potency to METH, mAb4G9 (mAb4G9): <0.001

(+)pseudoephedrine
Relative Potency to METH, mAb6H4 (mAb6H4): <0.001 | Relative Potency to METH, mAb6H8 (mAb6H8): 0.018 | Relative Potency to METH, mAb4G9 (mAb4G9): 0.004
